From US9714247B2, “Multiple kinase pathway inhibitors” (Mannkind Corporation, priority 2012, dated 2017)
Like-named read-outs stand apart in the source and are kept apart here.

Experiments:
[1] = test system: DoHH2; assay: CellTiter-Glo proliferation/viability assay; format: cell-based, human; settings: Homo sapiens, DOHH-2; 48 hrs; read-out: DoHH2 EC50
[2] = molecular target: BTK (Homo sapiens (Human), UniProt Q06187)
[3] = test system: Ramos; assay: CellTiter-Glo proliferation/viability assay; format: cell-based, human; settings: Homo sapiens, Ramos, read-out: Ramos EC50
[4] = molecular target: Src (Homo sapiens (Human), UniProt P12931); assay: biochemical
[5] = molecular target: Lyn (Homo sapiens (Human), UniProt P07948); assay: biochemical
Chain of Lyn (P07948 whole entry): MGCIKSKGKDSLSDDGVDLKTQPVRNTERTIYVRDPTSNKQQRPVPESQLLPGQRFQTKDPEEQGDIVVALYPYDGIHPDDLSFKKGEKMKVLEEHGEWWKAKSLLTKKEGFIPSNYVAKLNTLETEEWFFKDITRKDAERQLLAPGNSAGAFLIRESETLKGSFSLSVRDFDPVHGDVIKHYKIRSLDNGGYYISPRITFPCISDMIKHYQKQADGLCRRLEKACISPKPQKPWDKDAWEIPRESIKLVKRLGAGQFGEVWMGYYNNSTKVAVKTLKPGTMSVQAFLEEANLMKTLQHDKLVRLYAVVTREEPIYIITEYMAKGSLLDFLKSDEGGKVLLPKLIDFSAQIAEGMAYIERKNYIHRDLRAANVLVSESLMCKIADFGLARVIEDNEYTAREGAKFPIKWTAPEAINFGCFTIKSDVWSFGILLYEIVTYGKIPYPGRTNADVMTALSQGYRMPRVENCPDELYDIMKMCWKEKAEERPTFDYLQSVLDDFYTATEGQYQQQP

Chain of BTK (Q06187 whole entry): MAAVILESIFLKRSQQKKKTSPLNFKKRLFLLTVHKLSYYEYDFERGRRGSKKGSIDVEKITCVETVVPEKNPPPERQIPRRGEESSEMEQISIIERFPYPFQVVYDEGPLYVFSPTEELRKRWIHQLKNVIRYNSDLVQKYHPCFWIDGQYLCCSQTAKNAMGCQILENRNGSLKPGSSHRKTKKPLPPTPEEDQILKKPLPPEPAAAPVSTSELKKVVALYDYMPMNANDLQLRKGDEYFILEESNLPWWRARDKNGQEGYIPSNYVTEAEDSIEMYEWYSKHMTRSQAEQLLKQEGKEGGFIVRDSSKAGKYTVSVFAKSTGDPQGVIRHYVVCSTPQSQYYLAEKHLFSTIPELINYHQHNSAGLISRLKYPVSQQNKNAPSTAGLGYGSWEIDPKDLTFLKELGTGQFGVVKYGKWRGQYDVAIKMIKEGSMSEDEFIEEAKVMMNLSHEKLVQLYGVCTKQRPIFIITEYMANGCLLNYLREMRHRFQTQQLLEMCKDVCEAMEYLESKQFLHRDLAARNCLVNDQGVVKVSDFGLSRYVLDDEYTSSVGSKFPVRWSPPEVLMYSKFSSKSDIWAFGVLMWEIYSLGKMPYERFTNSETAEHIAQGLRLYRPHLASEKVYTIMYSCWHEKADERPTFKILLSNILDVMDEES
Chain of Src (P12931 whole entry, looked up): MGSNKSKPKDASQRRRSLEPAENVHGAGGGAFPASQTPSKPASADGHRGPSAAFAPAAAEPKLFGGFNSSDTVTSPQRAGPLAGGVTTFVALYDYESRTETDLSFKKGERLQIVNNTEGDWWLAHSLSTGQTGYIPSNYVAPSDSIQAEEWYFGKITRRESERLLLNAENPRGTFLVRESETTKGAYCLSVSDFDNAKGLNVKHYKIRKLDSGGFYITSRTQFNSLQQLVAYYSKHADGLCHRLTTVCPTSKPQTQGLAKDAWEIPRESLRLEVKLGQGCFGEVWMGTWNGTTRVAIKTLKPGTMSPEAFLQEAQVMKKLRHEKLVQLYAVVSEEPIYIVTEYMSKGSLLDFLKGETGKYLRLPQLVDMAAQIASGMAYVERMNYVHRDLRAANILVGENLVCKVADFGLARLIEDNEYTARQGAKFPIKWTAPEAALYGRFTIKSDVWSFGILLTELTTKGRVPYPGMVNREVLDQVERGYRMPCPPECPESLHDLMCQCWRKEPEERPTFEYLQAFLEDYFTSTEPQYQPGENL

Compound | EC50 [1] | IC50 [2] | EC50 ([3]; 48 h) | IC50 [4] | IC50 [5] | EC50 ([3]; 48 hrs) | IC50 ([2]; read-out: BTK IC50) | IC50 ([5]; Lyn IC50)
O=c1c(-c2c(Cl)cccc2Cl)cc2cnc(Nc3ccc(F)cn3)cc2n1C1CCOC1 (single isomer, unassigned) [Compound 147, (S or R)-3-(2,6-dichlorophenyl)-7-((5-fluoropyridin-2-yl)amino)-1-(tetrahydrofuran-3-yl)-1,6-naphthyridin-2(1H)-one] | < 1000 nM | < 100 nM | > 10000 nM | < 100 nM | < 100 nM |  |  | 
CCn1c(=O)c(-c2ccccc2)cc2cnc(Nc3cc(N4CCN(CCO)CC4)nc(C)n3)cc21 [Compound 5, 1-Ethyl-7-{6-[4-(2-hydroxy-ethyl)-piperazin-1-yl]-2-methyl-pyrimidin-4-ylamino}-3-phenyl-1H-[1,6]naphthyridin-2-one] | 1000 to 10000 nM | 100 to 1000 nM | > 10000 nM | 1000 to 5000 nM | 100 to 1000 nM |  |  | 
CCn1c(=O)c(-c2ccccc2)cc2cnc(Nc3cnccn3)cc21 [Compound 6, 1-Ethyl-3-phenyl-7-(pyrazin-2-ylamino)-1H-[1,6]naphthyridin-2-one] | > 10000 nM | 1000 to 5000 nM |  | 1000 to 5000 nM | 100 to 1000 nM | > 10000 nM |  | 
CCn1c(=O)c(-c2ccccc2)cc2cnc(Nc3ccccn3)cc21 [Compound 7, 1-Ethyl-3-phenyl-7-(pyridin-2-ylamino)-1H-[1,6]naphthyridin-2-one] | 1000 to 10000 nM | 100 to 1000 nM | > 10000 nM | 100 to 1000 nM | 1000 to 5000 nM |  |  | 
CCN(CC)CCOc1ccc(Nc2cc3[nH]c(=O)c(-c4ccccc4)cc3cn2)nc1 [Compound 14, 7-[5-(2-Diethylamino-ethoxy)-pyridin-2-ylamino]-3-phenyl-1H-[1,6]naphthyridin-2-one] | 1000 to 10000 nM |  |  | 100 to 1000 nM | 100 to 1000 nM | > 10000 nM | < 100 nM | 
CCn1c(=O)c(C2CC2)cc2cnc(Nc3ccc(C)cn3)cc21 [Compound 30, 3-Cyclopropyl-1-ethyl-7-(5-methyl-pyridin-2-ylamino)-1H-[1,6]naphthaayridin-2-one] | 1000 to 10000 nM |  | 1000 to 10000 nM | 100 to 1000 nM | 1000 to 5000 nM |  | > 5000 nM | 
CCn1c(=O)c(-c2ccccc2)cc2cnc(Nc3ccc(N4CCOCC4)cn3)cc21 [Compound 44, 1-Ethyl-7-(5-morpholin-4-yl-pyridin-2-ylamino)-3-phenyl-1H-[1,6]naphthyridin-2-one] | < 1000 nM |  |  | 100 to 1000 nM | 100 to 1000 nM | 1000 to 10000 nM | > 5000 nM | 
CCn1c(=O)c(-c2ccccc2)cc2cnc(Nc3ccc(OCCN(C)C)cn3)cc21 [Compound 48, 7-[5-(2-Dimethylamino-ethoxy)-pyridin-2-ylamino]-1-ethyl-3-phenyl-1H-[1,6]naphthyridin-2-one] | 1000 to 10000 nM | 1000 to 5000 nM |  | 1000 to 5000 nM | 100 to 1000 nM | > 10000 nM |  | 
CCN(CC)CCOc1ccc(Nc2cc3[nH]c(=O)c(C(C)C)cc3cn2)nc1 [Compound 49, 7-(5-(2-(diethylamino)ethoxy)pyridin-2-ylamino)-3-isopropyl-1,6-naphthyridin-2(1H)-one] | 1000 to 10000 nM | 1000 to 5000 nM | > 10000 nM | 100 to 1000 nM | 100 to 1000 nM |  |  | 
CCn1c(=O)c(-c2ccccc2)cc2cnc(Nc3ccc(OC)cn3)cc21 [Compound 51, 1-Ethyl-7-(5-methoxy-pyridin-2-ylamino)-3-phenyl-1H-[1,6]naphthayridin-2-one] | 1000 to 10000 nM | 1000 to 5000 nM |  | 100 to 1000 nM | 100 to 1000 nM | > 10000 nM |  | 
CCn1c(=O)c(C#CCO)cc2cnc(Nc3ccc(C)cn3)cc21 [Compound 53] | 1000 to 10000 nM |  |  | 100 to 1000 nM | 1000 to 5000 nM | 1000 to 10000 nM | > 5000 nM | 
CCn1c(=O)c(C#CC(C)(C)O)cc2cnc(Nc3ccc(C)cn3)cc21 [Compound 54] | 1000 to 10000 nM | 1000 to 5000 nM |  | 100 to 1000 nM | 100 to 1000 nM | > 10000 nM |  | 
CCN(CC)CCOc1ccc(Nc2cc3c(cn2)cc(-c2ccccc2)c(=O)n3C2CCN(C)C2)nc1 (stereo not drawn) [Compound 58, 7-((5-(2-(diethylamino)ethoxy)pyridin-2-yl)amino)-1-(1-methylpyrrolidin-3-yl)-3-phenyl-1,6-naphthyridin-2(1H)-one] | 1000 to 10000 nM | 1000 to 5000 nM | > 10000 nM | 100 to 1000 nM |  |  |  | 100 to 1000 nM
CCn1c(=O)c(-c2ccccc2)cc2cnc(Nc3ccncn3)cc21 [Compound 60, 1-Ethyl-3-phenyl-7-(pyrimidin-4-ylamino)-1H-[1,6]naphthyridin-2-one] | 1000 to 10000 nM | 100 to 1000 nM | > 10000 nM | 100 to 1000 nM | 1000 to 5000 nM |  |  | 
CCn1c(=O)c(-c2ccccc2)cc2cnc(Nc3ccc(OC)nn3)cc21 [Compound 61, 1-Ethyl-7-(6-methoxy-pyridazin-3-ylamino)-3-phenyl-1H-[1,6]naphthyridin-2-one] | < 1000 nM | 1000 to 5000 nM |  | 100 to 1000 nM | 1000 to 5000 nM | 1000 to 10000 nM |  | 
CCn1c(=O)c(-c2ccccc2)cc2cnc(Nc3ccnc(OC)n3)cc21 [Compound 62, 1-Ethyl-7-(2-methoxy-pyrimidin-4-ylamino)-3-phenyl-1H-[1,6]naphthyridin-2-one] | < 1000 nM | 1000 to 5000 nM | 1000 to 10000 nM | 100 to 1000 nM |  |  |  | 1000 to 5000 nM
CCn1c(=O)c(-c2ccccc2)cc2cnc(Nc3ccc(N(C)C)cn3)cc21 [Compound 64, 7-(5-Dimethylamino-pyridin-2-ylamino)-1-ethyl-3-phenyl-1H-[1,6]naphthyridin-2-one] | < 1000 nM | 1000 to 5000 nM |  | 100 to 1000 nM | 100 to 1000 nM | > 10000 nM |  | 
CCN(CC)CCOc1ccc(Nc2cc3c(cn2)cc(-c2ccccc2)c(=O)n3CC2CCN(C)C2)nc1 (stereo not drawn) [Compound 65, 7-((5-(2-(diethylamino)ethoxy)pyridin-2-yl)amino)-1-((1-methylpyrrolidin-3-yl)methyl)-3-phenyl-1,6-naphthyridin-2(1H)-one] | < 1000 nM |  | > 10000 nM | 100 to 1000 nM |  |  | > 5000 nM | 1000 to 5000 nM
CCN(CC)CCOc1ccc(Nc2cc3c(cn2)cc(-c2ccccc2)c(=O)n3-c2cccnc2)nc1 [Compound 84, 7-[5-(2-Diethylamino-ethoxy)-pyridin-2-ylamino]-3-phenyl-1-pyridin-3-yl-1H-[1,6]naphthyridin-2-one] | 1000 to 10000 nM | 100 to 1000 nM |  | 100 to 1000 nM | 1000 to 5000 nM | > 10000 nM |  | 
CCN(CC)CCOc1ccc(Nc2cc3c(cn2)cc(-c2ccccn2)c(=O)n3CC)nc1 [Compound 102, 7-((5-(2-(diethylamino)ethoxy)pyridin-2-yl)amino)-1-ethyl-3-(pyridin-2-yl)-1,6-naphthyridin-2(1H)-one] | 1000 to 10000 nM |  | > 10000 nM | 100 to 1000 nM |  |  | > 5000 nM | 100 to 1000 nM
CCN(CC)CCOc1ccc(Nc2cc3c(cn2)cc(-c2ccc(SC)cc2)c(=O)n3CC)nc1 [Compound 104, 7-((5-(2-(diethylamino)ethoxy)pyridin-2-yl)amino)-1-ethyl-3-(4-(methylthio)phenyl)-1,6-naphthyridin-2(1H)-one] | 1000 to 10000 nM |  | 1000 to 10000 nM | 100 to 1000 nM | 100 to 1000 nM |  | > 5000 nM | 
CCn1c(=O)c(-c2ccccc2)cc2cnc(Nc3ccc(CN4CCNCC4)cn3)cc21 [Compound 110, 1-ethyl-3-phenyl-7-((5-(piperazin-1-ylmethyl)pyridin-2-yl)amino)-1,6-naphthyridin-2(1H)-one] | < 1000 nM |  |  | 100 to 1000 nM | 100 to 1000 nM | 1000 to 10000 nM | < 100 nM | 
CCn1c(=O)c(-c2ccccc2)cc2cnc(Nc3ccc(CN4CCN(S(C)(=O)=O)CC4)cn3)cc21 [Compound 111, 1-ethyl-7-((5-((4-(methylsulfonyl)piperazin-1-yl)methyl)pyridin-2-yl)amino)-3-phenyl-1,6-naphthyridin-2(1H)-one] | < 1000 nM |  |  | 100 to 1000 nM | 100 to 1000 nM | 1000 to 10000 nM | < 100 nM | 
CCn1c(=O)c(-c2ccccc2)cc2cnc(Nc3cn(C)cn3)cc21 [Compound 113, 1-ethyl-7-((1-methyl-1H-imidazol-4-yl)amino)-3-phenyl-1,6-naphthyridin-2(1H)-one] | > 10000 nM | 1000 to 5000 nM | > 10000 nM | 100 to 1000 nM | 100 to 1000 nM |  |  | 
CCn1c(=O)c(-c2ccccc2)cc2cnc(Nc3cn(CCOC)cn3)cc21 [Compound 114, 1-ethyl-7-((1-(2-methoxyethyl)-1H-imidazol-4-yl)amino)-3-phenyl-1,6-naphthyridin-2(1H)-one] | 1000 to 10000 nM |  | > 10000 nM | 100 to 1000 nM | 1000 to 5000 nM |  | < 100 nM | 
CCn1c(=O)c(-c2cc([S+](C)[O-])ccc2F)cc2cnc(Nc3ccc(N(C)C4CCN(C)CC4)cn3)cc21 (stereo not drawn) [Compound 117, 1-ethyl-3-(2-fluoro-5-(methylsulfinyl)phenyl)-7-((5-(methyl(1-methylpiperidin-4-yl)amino)pyridin-2-yl)amino)-1,6-naphthyridin-2(1H)-one] | 1000 to 10000 nM | 100 to 1000 nM | > 10000 nM | 100 to 1000 nM | < 100 nM |  |  | 
O=c1c(-c2c(F)cccc2F)cc2cnc(Nc3ccc(F)cn3)cc2n1CCO [Compound 125, 3-(2,6-difluorophenyl)-7-((5-fluoropyridin-2-yl)amino)-1-(2-hydroxyethyl)-1,6-naphthyridin-2(1H)-one] | < 1000 nM | 100 to 1000 nM | > 10000 nM | 100 to 1000 nM | 100 to 1000 nM |  |  | 
